Laboratory results reported in publication PMC7016953 (Cells, 2020).
Like-named read-outs stand apart in the source and are kept apart here.

How the values were obtained:
TRPC3 [1] = biological target: T1, TRPC3 (Homo sapiens, UniProt Q13507); test: Whole-cell patch-clamp recordings in HEK TRPC3-YFP cells; assay type: cell-based; details: for EC50: n = 12–27 cells
T1 construct: expressed in transfected cells
T1 sequence (Q13507 1-848 isoform Q13507-3): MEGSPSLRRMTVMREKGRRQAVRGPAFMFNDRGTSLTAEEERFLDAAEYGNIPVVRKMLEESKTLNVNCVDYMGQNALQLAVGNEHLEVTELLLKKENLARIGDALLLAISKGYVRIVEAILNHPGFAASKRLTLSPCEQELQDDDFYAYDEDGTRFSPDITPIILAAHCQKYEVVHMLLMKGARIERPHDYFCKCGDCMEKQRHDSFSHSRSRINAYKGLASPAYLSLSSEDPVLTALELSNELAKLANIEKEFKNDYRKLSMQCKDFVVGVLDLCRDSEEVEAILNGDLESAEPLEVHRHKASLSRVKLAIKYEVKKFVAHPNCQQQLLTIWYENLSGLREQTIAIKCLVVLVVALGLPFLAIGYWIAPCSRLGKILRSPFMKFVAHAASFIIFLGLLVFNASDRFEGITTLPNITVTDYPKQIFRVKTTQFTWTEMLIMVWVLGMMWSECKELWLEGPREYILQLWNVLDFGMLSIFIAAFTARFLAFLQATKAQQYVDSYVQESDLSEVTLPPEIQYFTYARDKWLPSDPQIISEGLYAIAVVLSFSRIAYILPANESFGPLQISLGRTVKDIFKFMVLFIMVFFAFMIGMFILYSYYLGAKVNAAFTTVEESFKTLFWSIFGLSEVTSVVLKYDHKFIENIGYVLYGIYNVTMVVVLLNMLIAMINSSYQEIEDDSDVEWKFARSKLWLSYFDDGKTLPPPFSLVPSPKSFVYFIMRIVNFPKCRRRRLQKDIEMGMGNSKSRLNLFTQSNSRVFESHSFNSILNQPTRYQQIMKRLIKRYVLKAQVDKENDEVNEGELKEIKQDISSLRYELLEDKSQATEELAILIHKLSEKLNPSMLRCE
Experimental: (§1) The recordings of TRPC3, TRPC6, or TRPC7 membrane currents in HEK293 or PC12 cells were realized by using a Multiclamp 700B amplifier with a Digidata 1440A digitizer controlled by the PClamp 10 software (all Molecular Devices, Sunnyvale, CA, U.S.A.). Recordings were obtained at room temperature either in the whole-cell or in an outside-out configuration as indicated. Cells were seeded as described above, but at lower density, mounted in a chamber (Warner Instruments, Hamden, CT; U.S.A.), placed onto the stage of an inverted microscope, and perfused with required solution. The standard extracellular solution contained 140 mM NaCl, 5 mM CsCl, 2 mM MgCl2, 1 mM CaCl2, 10 mM HEPES, and 0.035% BSA adjusted to pH 7.4 with NaOH. The composition of standard intracellular solution was 140 mM CsCl, 1 mM MgCl2, 5 mM EGTA, and 10 mM HEPES adjusted to pH 7.25 with CsOH; the osmolarity was 295 mOsm l^−1. In outside-out measurements, the pipette solution contained 5 mM EGTA and 1.1 mM CaCl2 to achieve a calculated free Ca^2+ concentration of 100 nM.
Patch pipettes were pulled from borosilicate glass capillaries BG150F-8P (Science Products, Hofheim, Germany) with a PIP6 pipette puller (HEKA Elektronik, Lambrecht, Germany). […] In all whole-cell measurements, the series resistance was lower than 13 MΩ, and compensated by 70%. If the access was unstable during the experiment (increase in series resistance by more than 15% at the end of the experiment), the cell was omitted from the analysis. To record current/voltage (I/V) curves, voltage ramps (400 mV s^−1) ranging from –100 to +100 mV were applied. Currents were filtered at 3 kHz with a four-pole Bessel filter and sampled at 10 kHz.
Figure 4 Electrophysiological analysis of artemisinin-induced whole-cell currents in HEKTRPC3-YFP cells. The voltage protocol depicted in the box (duration of 0.8 s) was applied in 1 s intervals, and steady state inward and outward current densities averaged at potentials of –100 or +100 mV as well as voltage ramps (0.4 Vs^−1) were extracted from the data. (A) Current densities at +100 and –100 mV, respectively.

TRPC3 [2] = biological target: T1, TRPC3; test: Outside-out patch recordings from HEK TRPC3-YFP cells; assay type: cell-based; details: 50 µM, outside-out patches, −100 mV, n = 6
Experimental: as §1, with “nM. […]” for “nM.”
Outside-out patches were obtained from HEKTRPC3-YFP cells, and ionic currents were continuously recorded at a patch potential of –100 mV. […] (B) The open probability (Po) for the unknown number N of channels in the patch of the experiment shown in (A) was calculated over 2 s bins and plotted at the same time scale.

C[C@@H]1CC[C@H]2[C@@H](C)C(=O)O[C@@H]3O[C@@]4(C)CC[C@@H]1[C@]32OO4 [artemisinin]
Hill coefficient, outward currents (TRPC3 [1]; +100 mV): 2.2 | EC50 (TRPC3 [1]; +100 mV, read-out: EC50 to activate TRPC3 outward currents): 33 µM | Hill coefficient, inward currents (TRPC3 [1]; −100 mV): 2.4 | EC50 (TRPC3 [1]; −100 mV, read-out: EC50 to activate TRPC3 inward currents): 25 µM | increase in the open probability (TRPC3 [2]): about 5.5 fold
